Laboratory results as given in the supplement of paper PMC4862054.

Tests used:
Details in all cases: incubation time: 72 h
[1] = tested on: BT-474; experiment: normalised response (% of control), CellTox Green; higher = less cell death (100 = DMSO, 0 = benzethonium chloride kill control)
How it was run: (§1)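 For each plate, 0.1 % DMSO was set to 100 and a positive kill control to 0. Breast cancer cell lines (20 µl suspension) were seeded into 384-well plates already holding compound at 5 concentrations in 10-fold steps over a 10,000-fold range chosen per compound, and incubated for 72 h. CellTox Green fluorescence at 485/520 nm was read before CellTiter-Glo luminescence, which followed 10 min at room temperature. Each value is the normalised signal at one concentration.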

[2] = tested on: BT-549; experiment: as above
How it was run: as §1

[3] = tested on: CAL-120; experiment: as above
How it was run: as §1

[4] = tested on: CAL-148; experiment: as above
How it was run: as §1

[5] = tested on: CAL-51; experiment: as above
How it was run: as §1

[6] = tested on: CAL-85-1; experiment: as above
How it was run: as §1

[7] = tested on: DU-4475; experiment: as above
How it was run: as §1

[8] = tested on: HCC1143; experiment: as above
How it was run: as §1

[9] = tested on: HCC1599; experiment: as above
How it was run: as §1

[10] = tested on: HCC1937; experiment: as above
How it was run: as §1

[11] = tested on: Hs578T; experiment: as above
How it was run: as §1

[12] = tested on: MCF-10A; experiment: as above
How it was run: as §1

[13] = tested on: MDA-MB-231; experiment: as above
How it was run: as §1

[14] = tested on: MDA-MB-436; experiment: as above
How it was run: as §1

[15] = tested on: MDA-MB-453; experiment: as above
How it was run: as §1

[16] = tested on: MDA-MB-468; experiment: as above
How it was run: as §1

[17] = tested on: MFM-223; experiment: as above
How it was run: as §1

[18] = tested on: BT-474; experiment: normalised response (% of control), CellTiter-Glo; higher = more viable cells (100 = DMSO, 0 = benzethonium chloride kill control)
Experimental: (§2)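 DSRT, 72 h incubation, CellTox Green / CellTiter-Glo readout. Signal is normalised to DMSO and benzethonium chloride controls. Value is the normalised response at dose 3.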

[19] = tested on: BT-549; experiment: as above
Experimental: as §2

[20] = tested on: CAL-120; experiment: as above
Experimental: as §2

[21] = tested on: CAL-148; experiment: as above
Experimental: as §2

[22] = tested on: CAL-51; experiment: as above
Experimental: as §2

[23] = tested on: CAL-85-1; experiment: as above
Experimental: as §2

[24] = tested on: DU-4475; experiment: as above
Experimental: as §2

[25] = tested on: HCC1143; experiment: as above
Experimental: as §2

[26] = tested on: HCC1599; experiment: as above
Experimental: as §2

[27] = tested on: HCC1937; experiment: as above
Experimental: as §2

[28] = tested on: HDQ-P1; experiment: as above
Experimental: as §2

[29] = tested on: Hs578T; experiment: as above
Experimental: as §2

[30] = tested on: MCF-10A; experiment: as above
Experimental: as §2

[31] = tested on: MDA-MB-231; experiment: as above
Experimental: as §2

[32] = tested on: MDA-MB-436; experiment: as above
Experimental: as §2

[33] = tested on: MDA-MB-453; experiment: as above
Experimental: as §2

[34] = tested on: MDA-MB-468; experiment: as above
Experimental: as §2

[35] = tested on: MFM-223; experiment: as above
Experimental: as §2

[36] = tested on: SK-BR-3; experiment: as above
Experimental: as §2

[37] = tested on: HDQ-P1; experiment: normalised response (% of control), CellTox Green; higher = less cell death (100 = DMSO, 0 = benzethonium chloride kill control)
How it was run: as §1

| SMILES | normalised response [1] [%] | normalised response [2] [%] | normalised response [3] [%] | normalised response [4] [%] | normalised response [5] [%] | normalised response [6] [%] | normalised response [7] [%] | normalised response [8] [%] | normalised response [9] [%] | normalised response [10] [%] | normalised response [11] [%] | normalised response [12] [%] | normalised response [13] [%] | normalised response [14] [%] | normalised response [15] [%] | normalised response [16] [%] | normalised response [17] [%] | normalised response [18] [%] | normalised response [19] [%] | normalised response [20] [%] | normalised response [21] [%] | normalised response [22] [%] | normalised response [23] [%] | normalised response [24] [%] | normalised response [25] [%] | normalised response [26] [%] | normalised response [27] [%] | normalised response [28] [%] | normalised response [29] [%] | normalised response [30] [%] | normalised response [31] [%] | normalised response [32] [%] | normalised response [33] [%] | normalised response [34] [%] | normalised response [35] [%] | normalised response [36] [%] | normalised response [37] [%] |
| --- | --- | --- | --- | --- | --- | --- | --- | --- | --- | --- | --- | --- | --- | --- | --- | --- | --- | --- | --- | --- | --- | --- | --- | --- | --- | --- | --- | --- | --- | --- | --- | --- | --- | --- | --- | --- | --- |
| Cc1c(Cn2c(C)nc3c(C(=O)O)cc(N4CCOCC4)cc32)cccc1C(F)(F)F (100 nM) | 104 | 111 | 106 | 105 | 86.7 | 104 | 109 | 113 | 107 | 78 | 109 | 101 | 124 | 108 | 111 | 134 | 107 | 97.2 | 86.2 | 102 | 111 | 62.5 | 96.6 | 103 | 101 | 101 | 94.5 | 103 | 101 | 111 | 104 | 102 | 91.3 | 89.2 | 108 | 107 | – |
| CCCCC/C=C/C=C1/C(=O)C=C[C@@H]1C/C=C\CCCC(=O)O [15D-PGJ2] (8 nM) | 102 | 112 | 99.3 | 88.1 | 107 | 109 | 110 | 105 | 111 | 101 | 113 | 64.6 | 118 | 103 | – | 82 | 100 | 98.7 | 99.3 | 107 | 112 | 97.1 | 100 | 101 | 104 | 86.3 | 99.1 | 103 | 96.9 | 101 | 107 | 101 | 100 | 94 | 98.5 | 99.4 | – |
| CC(=O)OC[C@H]1O[C@@H]([S-])[C@H](OC(C)=O)[C@@H](OC(C)=O)[C@@H]1OC(C)=O.CCP(CC)CC.[Au+] [Auranofin] (25 nM) | 105 | 110 | 110 | 108 | 100 | 122 | 112 | 88.9 | 111 | 113 | – | 62.3 | 123 | – | 109 | 117 | 102 | 96.8 | 93.1 | 100 | 111 | 92.5 | 99 | 98.2 | 104 | 89.1 | 93.8 | 101 | 103 | 104 | 103 | 103 | 104 | 103 | 97.8 | 101 | 93.8 |
| Cc1c(CN2CCN(C(=O)[C@H](C)O)CC2)sc2c(N3CCOCC3)nc(-c3cnc(N)nc3)nc12 [GDC-0980] (100 nM) | 101 | 106 | 102 | – | 112 | 106 | 99.9 | 113 | 106 | 114 | – | 83.3 | 81.2 | 108 | 98 | 124 | 105 | 93.5 | 90.1 | 96.2 | 102 | 86.3 | 99.9 | 98 | 92.9 | 98.3 | 89.3 | 84 | 86.2 | 90.8 | 97.1 | 92.5 | 75.8 | 95.9 | 93.6 | 72.5 | 110 |
